{
  "source": "paper PMC12220852",
  "about": "“An adamantane‐based ligand as a novel chemical tool for thermosensory TRPM8 channel therapeutic modulation” (The Febs Journal, 2025)",
  "key": {"[1]": {"tested_on": "WS‐12‐evoked action potentials in primary cultures of murine DRG sensory neurons", "experiment": "Multielectrode array (MEA): WS-12-evoked action potential firing in DRG sensory neurons", "format": "cell-based", "details": "Mus musculus, Neuron; 0.43 μM compound, 1 μM WS-12, MEA, P2/P1; read-out: inhibition of WS‐12‐induced action potential firing", "experimental": "Complementarily, we examined the effect of compound 23 on WS‐12‐evoked action potentials in primary cultures of murine DRG sensory neurons. For this task, we recorded neuronal excitability using multielectrode arrays (MEAs). […] A protocol of two sequential pulses of WS‐12 interspersed with a washing pulse was applied to correct for channel desensitization (Fig. 7A, upper recording). Compounds 23 and AMTB (0.43 and 10 μM, respectively) were applied 1 min before and during the second WS‐12 pulse (Fig. 7A, second, third, and fourth recordings). As depicted in Fig. 7B, compound 23 virtually abolished action potential firings induced by WS‐12 application in murine primary afferent neurons (≥ 75%). Thus, compound 23 appears to be a potent inhibitor of WS12‐evoked firing frequency, even surpassing the efficacy of AMTB […] (Fig. 7B).\nPrimary cultures of neonatal dorsal root ganglia were used for multielectrode array (MEA) and patch‐clamp experiments following established methodologies previously described. Neonatal dorsal root ganglia (DRGs) were obtained from Wistar rats (3–5 days old) and were isolated and digested with 0.25% (w/v) collagenase (type IA) in DMEM GlutaMax with 1% (v/v) penicillin/streptomycin (P/S) solution for 1 h at 37 °C in a 5% CO2 Thermo Scientific incubator. […]"}, "[2]": {"tested_on": "oxaliplatin‐induced peripheral cold allodynia in mice", "experiment": "Dry ice test in oxaliplatin-induced cold allodynia", "format": "in vivo, mouse", "details": "5 mg·kg^−1 i.p., 30 and 90 min after administration, vs vehicle, oxaliplatin-treated mice", "experimental": "Given the inhibitory activity of compound 23 and the antinociceptive effects of TRPM8 antagonists described in models of oxaliplatin (OXP)‐induced neuropathy, we conducted a behavioral experiment in mice to assess the antinociceptive effects of compound 23 after repeated oxaliplatin administration. Oxaliplatin was intraperitoneally (i.p.) administered every other day for 5 days at 6 mg·kg^−1, reaching a total accumulative dose of 18 mg·kg^−1. […] The OXP‐induced sensitization to cold stimuli was also evident with the dry ice test, as evidenced by the significant reduction in the latency to cold stimulation through the application of a dry ice pellet against the paw on a glass surface (Fig. 8B, P < 0.05 Before OXP vs. After OXP). […]\nThe systemic effect of compound 23 was assessed after intraperitoneal administration at 5 mg·kg^−1, dissolved in a solution of 2% Cremophor and 5% DMSO in saline, with a volume of 10 mL·kg^−1. […] Nociceptive sensitivity was evaluated for 30‐ and 90‐min postinjection using the acetone drop test (7 days after the first oxaliplatin dose) and the dry ice test (9 days after the last oxaliplatin dose).\nThe dry ice test was conducted as previously described with some modifications. […] To determine the threshold value for each mouse, the latency to paw withdrawal was recorded for each hindpaw and subsequently averaged. […]"}},
  "note": "Entries after “also recorded” stand apart in the source; their conditions may differ.",
  "data": [
    {"smiles": "O=C(COC(=O)c1ccccc1-c1ccccc1)NC12CC3CC(CC(C3)C1)C2", "note": "[Compound 23, 2‐((3S,5S,7S)‐adamantan‐1‐ylamino)‐2‐oxoethyl [1,1′‐biphenyl]‐2‐carboxylate]", "values": [
      {"measurement": "inhibition at 0.43 µM", "setting": "[1]", "result": "≥ 75", "unit": "%"},
      {"measurement": "effect on withdrawal latency to dry ice, systemic treatment", "setting": "[2]", "result": "did not exhibit cold antinociceptive effects; also recorded: did not significantly affect"}
    ]}
  ]
}
